Converted amounts (≈) assume the structure as drawn.
Assays:
[1] = test system: ART24; test: Antibiotic susceptibility of ART24 lots and cell banks, MIC following EFSA testing recommendations (Table 3); format: cell-based, Bacillus amyloliquefaciens; conditions: for MIC: Bacillus amyloliquefaciens
Description: The minimum inhibitory concentration (MIC) of the listed antimicrobials is expressed as μg/mL. Additional studies following EFSA testing recommendations were performed on lyophilized ART24 lots CO-33-10A2 and CO-33-12A2 and Research and Master Cell Banks CO-33-ART24 BHI and CO-33-ART24 SYD, and those results are shown in Table 3.

[2] = test system: ART24; test: Antibiotic susceptibility of ART24, MIC, VetMIC panels (Table 2); format: cell-based, Bacillus amyloliquefaciens; conditions: 24 hr at 37° C., average results from N = 6; for MIC: Bacillus amyloliquefaciens, read-out: ART24 MIC
Description: The minimum inhibitory concentration (MIC) of the listed antimicrobials is expressed as μg/mL. […] The wells of the prefabricated 96-well plates were filled with 100 μL of the final suspension. The plates were sealed with an […], Sigma Aldrich) sealing film (to facilitate growth of the aerobic Bacillus. The plates were then incubated for 24 hr at 37° C. The results are recorded after 24 hours as the lowest concentration of the antibiotic to inhibit visible growth. The prefabricated panels […], Uppsala, Sweden) comprising the antibiotics ampicillin, vancomycin, gentamicin, kanamycin, streptomycin, erythromycin, clindamycin, tetracycline, chloramphenicol, neomycin, penicillin, quinupristin-dalfopristin, linezolid, trimethoprim, ciprofloxacin and rifampicin were used.

[3] = ART24 source: cell bank CO-33 ART 24 BHI
[4] = ART24 source: cell bank CO-33 ART 024 SYD
[5] = ART24 source: lyophilized lot CO-33-10A2
[6] = ART24 source: lyophilized lot CO-33-12A2
[7] = ART24 source: cell bank CO-33 ART 24 BHI, read-out: MIC, CO-33 ART 24 BHI
[8] = ART24 source: cell bank CO-33 ART 024 SYD, read-out: MIC, CO-33 ART 024 SYD
[9] = ART24 source: lyophilized lot CO-33-10A2, read-out: MIC, CO-33-10A2
[10] = ART24 source: lyophilized lot CO-33-12A2, read-out: MIC, CO-33-12A2

Row | Molecule | MIC interpretation, CO-33 ART 24 BHI [1, 3] | MIC interpretation, CO-33 ART 024 SYD [1, 4] | MIC interpretation, CO-33-10A2 [1, 5] | MIC interpretation, CO-33-12A2 [1, 6] | MIC [1, 7] | MIC [1, 8] | MIC [1, 9] | MIC [1, 10] | MIC [2] | MIC, CO-33 ART 24 BHI [1, 3] | MIC, CO-33 ART 024 SYD [1, 4] | MIC, CO-33-10A2 [1, 5] | MIC, CO-33-12A2 [1, 6] | ART24 MIC [2]
1 | O=C(O)c1cn(C2CC2)c2cc(N3CCNCC3)c(F)cc2c1=O [Ciprofloxacin] | S | S | S | S | ≤ 0.03 µg/mL | ≤ 0.03 µg/mL | ≤ 0.03 µg/mL | ≤ 0.03 µg/mL | ≤ 0.25 µg/mL | – | – | – | – | –
2 | CC(=O)NC[C@H]1CN(c2ccc(N3CCOCC3)c(F)c2)C(=O)O1 [Linezolid] | – | – | – | – | 0.5 µg/mL (≈ 1.48 µM) | 0.5 µg/mL (≈ 1.48 µM) | 0.25 µg/mL (≈ 0.741 µM) | 0.5 µg/mL (≈ 1.48 µM) | 0.5 µg/mL (≈ 1.48 µM) | – | – | – | – | –
3 | NC[C@H]1O[C@H](O[C@H]2[C@H](O)[C@@H](O[C@H]3O[C@H](CO)[C@@H](O)[C@H](N)[C@H]3O)[C@H](N)C[C@@H]2N)[C@H](O)[C@@H](O)[C@@H]1O [Kanamycin] | S | S | S | S | ≤ 0.5 µg/mL | ≤ 0.5 µg/mL | ≤ 0.5 µg/mL | ≤ 0.5 µg/mL | ≤ 2 µg/mL | – | – | – | – | –
4 | Neomycin | – | – | – | – | – | – | – | – | – | ≤0.12 mg/L | ≤0.12 mg/L | ≤0.12 mg/L | ≤0.12 mg/L | ≤0.5 µg/mL
5 | Gentamicin | S | S | S | S | – | – | – | – | – | ≤ 0.06 mg/L | ≤ 0.06 mg/L | ≤ 0.06 mg/L | ≤ 0.06 mg/L | ≤0.5 µg/mL
6 | O=C(N[C@H](CO)[C@H](O)c1ccc([N+](=O)[O-])cc1)C(Cl)Cl [Chloramphenicol] | S | S | S | S | 2 µg/mL (≈ 6.19 µM) | 2 µg/mL (≈ 6.19 µM) | 2 µg/mL (≈ 6.19 µM) | 2 µg/mL (≈ 6.19 µM) | 4 µg/mL (≈ 12.4 µM) | – | – | – | – | –
7 | CCc1c(Cl)c(O)c(Cl)c(O)c1C(=O)O[C@H]1[C@H](O)[C@H](OC)[C@H](OC/C2=C\C=C\C[C@H](O)/C(C)=C/[C@H](CC)[C@@H](O[C@@H]3OC(C)(C)[C@@H](OC(=O)C(C)C)[C@H](O)[C@@H]3O)/C(C)=C/C(C)=C/C[C@@H]([C@@H](C)O)OC2=O)O[C@@H]1C [Fidaxomicin] | – | – | – | – | 4 µg/mL (≈ 3.78 µM) | 4 µg/mL (≈ 3.78 µM) | 2 µg/mL (≈ 1.89 µM) | 4 µg/mL (≈ 3.78 µM) | – | – | – | – | – | –
8 | CC[C@H]1OC(=O)[C@H](C)[C@@H](O[C@H]2C[C@@](C)(OC)[C@@H](O)[C@H](C)O2)[C@H](C)[C@@H](O[C@@H]2O[C@H](C)C[C@H](N(C)C)[C@H]2O)[C@](C)(O)C[C@@H](C)C(=O)[C@H](C)[C@@H](O)[C@]1(C)O [Erythromycin] | S | S | S | S | 0.12 µg/mL (≈ 0.164 µM) | 0.12 µg/mL (≈ 0.164 µM) | 0.06 µg/mL (≈ 0.0818 µM) | 0.06 µg/mL (≈ 0.0818 µM) | 0.12 µg/mL (≈ 0.164 µM) | – | – | – | – | –
9 | COc1cc(Cc2cnc(N)nc2N)cc(OC)c1OC [Trimethoprim] | – | – | – | – | ≤ 0.25 µg/mL | ≤ 0.25 µg/mL | ≤ 0.25 µg/mL | ≤ 0.25 µg/mL | ≤ 0.12 µg/mL | – | – | – | – | –
